Experimental data as given in PubChem BioAssay (NCI).
Values joined by “and” are separate entries in the source; they are usually repeats but may differ in a detail not shown here. Equal values may be shown once.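 Grown in 96-well plates, cells were treated for 48 hours with each compound at five concentrations. Insufficient inhibition: endpoint recorded as highest concentration tested. GI50 is the concentration that inhibits growth by half. At the TGI there is no net growth.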

What was measured:
Test in all cases: growth of human tumour cells (NCI), 48 h
OVCAR-3 ovarian = test system: OVCAR-3 ovarian
UO-31 renal = test system: UO-31 renal
SN12C renal = test system: SN12C renal
SF-268 CNS = test system: SF-268 CNS
DLD-1 colon = test system: DLD-1 colon
KM20L2 colon = test system: KM20L2 colon
SF-539 CNS = test system: SF-539 CNS

Row | SMILES | TGI (OVCAR-3 ovarian) | TGI (UO-31 renal) | TGI (SN12C renal) | TGI (SF-268 CNS) | TGI (DLD-1 colon) | TGI (KM20L2 colon) | TGI (SF-539 CNS) | GI50 (UO-31 renal) | GI50 (SF-268 CNS) | GI50 (KM20L2 colon) | GI50 (SN12C renal) | GI50 (SF-539 CNS) | GI50 (DLD-1 colon)
1 | CC(=O)O[C@H]1CC2C=CC3C(CCC31)O2 (some centres not stated) | > 100 µM | > 100 µM | > 100 µM | > 100 µM | > 100 µM | > 100 µM | – | – | – | – | – | – | –
2 | COc1ccc(CCc2cc(OC)c(O)c(OC)c2)cc1 | > 100 µM | > 100 µM | > 100 µM | > 100 µM | > 100 µM | > 100 µM | > 100 µM | – | – | – | – | – | –
3 | c1ccc2c(NCCCCCCNc3cccc4ccccc34)cccc2c1 | > 100 µM | > 100 µM | > 100 µM | > 100 µM | > 100 µM | > 100 µM | > 100 µM | – | – | – | – | – | –
4 | CCCCCCCCCCCCCB(O)O | > 100 µM | > 100 µM | > 100 µM | > 100 µM | > 100 µM | > 100 µM | > 100 µM | > 100 µM and 27.5 µM | – | – | – | – | –
5 | COc1cc(/C=C2/C(=O)N(C(=O)OCc3ccccc3)C(Cc3cc(OC)c(OC)c(C)c3OC)C(=O)N2Cc2ccccc2)c(OC)c(C)c1OC (configuration not stated) | > 100 µM | > 100 µM | > 100 µM | > 100 µM | > 100 µM | > 100 µM | > 100 µM | – | – | – | – | – | –
6 | CC1C2CC=CC(=O)[C@@]2(C)CCC12OCCO2 (some centres not stated) | > 100 µM | > 100 µM | > 100 µM | > 100 µM | > 100 µM | > 100 µM | > 100 µM | – | – | – | – | – | –
7 | [O-]c1c2c(nn1-c1ccc(Cl)cc1)c1ccccc1c[n+]2Cc1ccccc1 | > 100 µM | > 100 µM | > 100 µM | > 100 µM | > 100 µM | > 100 µM | > 100 µM | – | – | – | – | – | –
8 | CCOC(=O)C(C(O)c1ccc([N+](=O)[O-])cc1)P(=O)(OCC)OCC (configuration not stated) | > 100 µM | – | > 100 µM | > 100 µM | > 100 µM | > 100 µM | > 100 µM | – | – | – | – | – | –
9 | COC[C@H](C)N=CN1CCc2ccccc2C1(Cc1ccccc1)Cc1ccccc1 | 43.8 µM | 33 µM | 23.8 µM | 45.9 µM | 29.8 µM | 24.7 µM | 33.6 µM | – | – | – | – | – | –
10 | CCN=C(C#N)NCC | > 100 µM | > 100 µM | > 100 µM | > 100 µM | > 100 µM | > 100 µM | > 100 µM | – | – | – | – | – | –
11 | Cc1ccc(NC(=O)OCC(COc2ccc(Cl)cc2Cl)OC(=O)Nc2ccc(C)cc2)cc1 (configuration not stated) | > 100 µM | > 100 µM | > 100 µM | > 100 µM | > 100 µM | > 100 µM | > 100 µM | – | – | – | – | – | –
12 | CCOC(=O)C(=O)Nc1ccccc1C(C)C | > 100 µM | > 100 µM | > 100 µM | > 100 µM | > 100 µM | > 100 µM | > 100 µM | – | – | – | – | – | –
13 | CCOC1CC2OC(=O)C1C=C2C(=O)OC (configuration not stated) | 75.1 µM | > 100 µM | – | > 100 µM | 65.8 µM | > 100 µM | 68.4 µM | – | – | – | – | – | –
14 | CCOCc1cc(=O)c2c(OC)cc3c(c2o1)CCC(C)(C)O3 | > 100 µM | > 100 µM | > 100 µM | – | > 100 µM | > 100 µM | > 100 µM | – | – | – | – | – | –
15 | Cc1ccccc1C1CC(c2ccccc2)=NO1 (configuration not stated) | > 100 µM | > 100 µM | > 100 µM | > 100 µM | > 100 µM | > 100 µM | > 100 µM | – | – | – | – | – | –
16 | CCOP1(=O)C=C(C)C(=C(Cl)Cl)C(C)=C1 (configuration not stated) | 64.2 µM | 52.9 µM | > 100 µM | > 100 µM | 78.5 µM | 6.76 µM and 65.3 µM | 66.7 µM | – | 15.8 µM | 4.53 µM | – | – | –
17 | CC(C)C1N2CCCCC2[C@@H]2c3[nH]c4ccccc4c3CCN12 (some centres not stated) | > 100 µM | > 100 µM | > 100 µM | > 100 µM | > 100 µM | > 100 µM | > 100 µM | – | – | – | – | – | –
18 | COC(=O)/C(=N\NC(N)=O)C(C(=O)C=C(C)C)C(=O)C(=O)Nc1ccc(Cl)c(Cl)c1 (configuration not stated) | > 100 µM | > 100 µM | > 100 µM | > 100 µM | > 100 µM | > 100 µM | > 100 µM | – | – | – | – | – | –
19 | CC1CC[P+](c2ccccc2)(c2ccccc2)CC1 | > 100 µM | > 100 µM | > 100 µM | – | > 100 µM | > 100 µM | > 100 µM | – | – | – | – | – | –
20 | CCCCN(CCCC)CCCn1cnc2ncccc2c1=O | > 100 µM | > 100 µM | > 100 µM | > 100 µM | > 100 µM | > 100 µM | > 100 µM | – | – | – | – | – | –
21 | C/C(=N\NC(=O)CC(=O)N(C(=O)c1ccc(Cl)cc1)c1ccc(C)cc1)c1ccccc1O | > 100 µM | > 100 µM | > 100 µM | > 100 µM | > 100 µM | > 100 µM | > 100 µM | – | – | – | – | – | –
22 | C1C[OH+]CC[OH+]CCNCC[OH+]CC[OH+]CCN1.Cl.[Cl-].[Pt+4] | – | > 100 µM | > 100 µM | > 100 µM | > 100 µM | > 100 µM | > 100 µM | > 100 µM | > 100 µM | > 100 µM | > 100 µM | > 100 µM | > 100 µM
